Experimental findings from article PMC10514301 (Signal Transduction and Targeted Therapy, 2023) are described below.

Values joined by “and” are separate entries in the source; they are usually repeats but may differ in a detail not shown here. Equal entries are not always repeated. Where two headings read alike, the source gives them in different places.

Series [1] concerns HCoV-OC43. In words: Median effect plots of individual drugs against HCoV-OC43 in RD cells. Format: cell-based.
The test system of series [2] is HCoV-OC43. In words: In vivo efficacy against HCoV-OC43 in suckling mice. More on the design: species or system suckling Balb/c mice.
Series [3] in a line: Plasma pharmacokinetics after oral administration in C57BL/6J mice. Particulars: for decrease of plasma Cmax in the VV116-nirmatrelvir combination compared with the individual study / decrease of plasma exposure in the VV116-nirmatrelvir combination compared with the individual study: oral VV116 + nirmatrelvir + ritonavir 50 + 100 + 50 mg/kg. The procedure: The PK studies were conducted at Suzhou HQ Bioscience Co., Ltd. Eighteen C57BL/6J mice (N = 6 for each group, male) were randomly divided into three groups, and fasted for 12 h before dosing. […] The vehicle for oral administration of the test compounds was 5% DMSO + 5% Solutol HS-15 + 5% PEG400 + 85% Saline. Blood sample (70 μL) was collected from the orbit of the first three mice in each group at 0.25, 1.0, 4.0, and 8.0 and the last three mice in each group at 0.5, 2.0, 6.0, and 24 h post-dosing. The sample was taken into EDTA-K2 tubes, and centrifuged at 11,000 rpm for 5 min. The plasma was separated and frozen in a refrigerator at −70 °C for testing. The operation was conducted under an ice water bath. The concentration of analyte in plasma was determined by LC–MS/MS.

Series [4] has as its system HCoV-229E. In words: Antiviral activity against HCoV-229E in MRC5 cells (qRT-PCR). Format: cell-based. Particulars: Human coronavirus 229E, MRC5, 48 h, read-out: EC50 mean ± sd, MRC5, 229E.
The test system of series [5] is HCoV-OC43. The experiment in a line: Antiviral activity against HCoV-OC43 in Huh-7 cells (qRT-PCR). Format: cell-based. Particulars: Betacoronavirus 1, OC43, Huh-7, 48 h, read-out: EC50 mean ± sd, Huh-7, OC43.
In series [6] the test system is HCoV-229E. In words: Antiviral activity against HCoV-229E in Huh-7 cells (qRT-PCR). Format: cell-based. Conditions: Human coronavirus 229E, Huh-7, 48 h, read-out: EC50 mean ± sd, Huh-7, 229E.
Series [7] has as its system HCoV-OC43. The experiment in a line: Antiviral activity against HCoV-OC43 in RD cells (qRT-PCR). Format: cell-based. Conditions: Betacoronavirus 1, OC43, RD, 48 h, read-out: EC50 mean ± sd, RD, OC43.
A short description of another series: Cytotoxicity in RD cells. In kind it is cell-based. Conditions: human.
[8] abbreviates: Betacoronavirus 1, OC43, RD, read-out: IC50 (drug concentration that inhibit 50% viral replication).
Where [9] appears, read: Betacoronavirus 1, read-out: IC50 (drug concentration that inhibit 50% viral replication), HCoV-OC43, RD cells, MOI 0.1, 48 hpi, median effect plot.
[10] abbreviates: male, C57BL/6J, mouse, plasma, po, 50 mg/kg.

Consider `CC(C)(C)[C@H](NC(=O)C(F)(F)F)C(=O)N1C[C@H]2[C@@H]([C@H]1C(=O)N[C@H](C#N)C[C@@H]1CCNC1=O)C2(C)C` [Nirmatrelvir, nirmatrelvir], for which the IC50 in the series with HCoV-OC43 [1] (setting [8]) turned out to be 121 nM. Also, in the series on HCoV-OC43 [1] (OC43), the “slope steepness (m) of the dose-response curve” value (“slope steepness (m)” for short) came to 4.49. Further, the “viral loads (titers, immunoplaque assay) in organs” value in the series with HCoV-OC43 [2] (VV116 50 mpk, nirmatrelvir 10 and 20 mpk with ritonavir, the two combinations) is “less than the limit of detection (LOD)”. Further, the “inflammation (cytokine gene expression) in the brain” value in the series with HCoV-OC43 [2] (VV116 50 mpk, nirmatrelvir 10 mpk, 25 mpk) was “dramatically reduced inflammation”. Moreover, the “lung histopathology (hematoxylin and eosin)” value with HCoV-OC43 [2] (VV116 50 mpk, nirmatrelvir 10 mpk, 25 mpk, Combo 1, Combo 2) is recorded as “significantly improved”. The “inflammation suppression (cytokine gene expression), especially IL-6 in the lungs” value in the series with HCoV-OC43 [2] (individual VV116 and nirmatrelvir treatments versus Combo 1 and Combo 2) was “limited inflammation suppression”. Further, the “viral copies in the brain” value with HCoV-OC43 [2] (oral once a day, VV116 25 and 50 mpk, nirmatrelvir 25 mpk with ritonavir 50 mpk) is listed as “almost completely cleared”. Further, in series [3], the “decrease of plasma Cmax in the VV116-nirmatrelvir combination compared with the individual study” value came out at 12.5% and the “decrease of plasma exposure in the VV116-nirmatrelvir combination compared with the individual study” value came to 19.8%.

In the case of `NC(=O)c1ncn([C@@H]2O[C@H](CO)[C@@H](O)[C@H]2O)n1` [Ribavirin, ribavirin], the IC50 with HCoV-OC43 [1] (setting [9]) amounted to 49500 nM. In addition, the “slope steepness (m)” value in the series on HCoV-OC43 [1] (OC43) was found to be 2.19.

With `N#C[C@@]1(c2ccc3c(N)ncnn23)O[C@H](CO)[C@@H](O)[C@H]1O` [GS-441524], the EC50 was 30 ± 21 nM with HCoV-229E [4], 1400 ± 55 nM in the series with HCoV-OC43 [5], 560 ± 82 nM with HCoV-229E [6] and 460 ± 79 nM with HCoV-OC43 [7].

On to `CC(C)(C)NC(=O)N[C@H](C(=O)N1C[C@H]2[C@@H]([C@H]1C(=O)NC(CC1CCC1)C(=O)C(N)=O)C2(C)C)C(C)(C)C` (some centres unmarked) [Boceprevir, boceprevir], for which the IC50 in the series on HCoV-OC43 [1] (setting [9]) came out at 26900 nM. Moreover, the “slope steepness (m)” value in the series with HCoV-OC43 [1] (OC43) amounted to 11.2.

Regarding `COc1ccc2c(O[C@@H]3C[C@H]4C(=O)N[C@]5(C(=O)NS(=O)(=O)C6CC6)C[C@H]5/C=C\CCCCN(C)C(=O)[C@@H]4C3)cc(-c3nc(C(C)C)cs3)nc2c1C` [Simeprevir, simeprevir], the IC50 in the series on HCoV-OC43 [1] (setting [9]) came to 2220 nM. The “slope steepness (m)” value in the series with HCoV-OC43 [1] (OC43) was found to be 2.18.

For the molecule `Cc1cccc(C)c1OCC(=O)N[C@@H](Cc1ccccc1)[C@@H](O)C[C@H](Cc1ccccc1)NC(=O)[C@H](C(C)C)N1CCCNC1=O` [Lopinavir, lopinavir], in the series with HCoV-OC43 [1] (setting [9]), the IC50 turned out to be 1440 nM. The “slope steepness (m)” value in the series on HCoV-OC43 [1] (OC43) worked out at 1.94.

Regarding `Cc1cnc(C(=O)N[C@H]2CCCCC/C=C\[C@@H]3C[C@@]3(C(=O)NS(=O)(=O)C3CC3)NC(=O)[C@@H]3C[C@@H](Oc4nc5ccccc5c5ccccc45)CN3C2=O)cn1` [Paritaprevir, paritaprevir], the IC50 in the series with HCoV-OC43 [1] (setting [9]) came out at 2500 nM. For the same molecule, in the series with HCoV-OC43 [1] (OC43), the “slope steepness (m)” value turned out to be 1.55.

As to `O=c1nc(NO)ccn1[C@@H]1O[C@H](CO)[C@@H](O)[C@H]1O` [NHC, β-d-N4-hydroxycytidine], the “slope steepness (m)” value in the series on HCoV-OC43 [1] (HCoV-OC43, RD cells, MOI 0.1, 48 hpi, median effect plot) was determined as 2.80. Also, the IC50 in the series on HCoV-OC43 [1] (read-out: IC50 (drug concentration that inhibit 50% viral replication), HCoV-OC43, RD cells, MOI 0.1, 48 hpi, median effect plot) worked out at 5680 nM.

Consider `[2H]c1cc([C@]2(C#N)O[C@H](CO)[C@@H](O)[C@H]2O)n2ncnc(N)c12` [X1], for which the EC50 in the series on HCoV-229E [4] is 60 ± 160 nM; in the series with HCoV-OC43 [5], 1100 ± 61 nM; in the series with HCoV-229E [6] it was 570 ± 70 nM; in the series with HCoV-OC43 [7] it was 800 ± 420 nM. In series [3] (setting [10]), this molecule yielded an AUC(0-t) of 19500 ng·h/mL. Also, in series [3] (setting [10]), the Cmax is 10700 ng/mL and 36.6 µM. For the same molecule, the “decrease of plasma Cmax in the VV116-nirmatrelvir combination compared with the individual study” value in series [3] was 20.3%. The “decrease of plasma exposure in the VV116-nirmatrelvir combination compared with the individual study” value in series [3] is on record as 13.5%.

On to `CCC(CC)COC(=O)[C@H](C)N[P@](=O)(OC[C@H]1O[C@@](C#N)(c2ccc3c(N)ncnn23)[C@H](O)[C@@H]1O)Oc1ccccc1` [RDV, remdesivir], for which the IC50 with HCoV-OC43 [1] (setting [8]) stood at 20.2 nM. Besides, the “slope steepness (m)” value in the series with HCoV-OC43 [1] (OC43) stood at 2.40. This molecule also showed a CC50 in “Cytotoxicity in RD cells” of 1570 nM. Also, the results for the EC50 in the series with HCoV-229E [6] and with HCoV-OC43 [7] were 41 nM and 21 ± 35 nM, respectively.
